Results taken from patent publication US4640916A, “1,4-benzothiazine derivatives, compositions containing them and method of use” (priority 1984, dated 1987).
Structures can show the parent of a compound that is named as a salt. Where two headings read alike, the source gives them in different places.

Key:
[1] = test system: contraction of the aorta strip caused by norepinephrine (NE); assay: Vasodilating action: inhibition of contraction of rabbit aorta strip caused by norepinephrine (NE); type: cell-based; conditions: Oryctolagus cuniculus, compound 10^-5 M, NE 10^-6 M, 15 min pretreatment, read-out: Inhibitory percent against contraction, NE
Method: (§1) A spiral strip of aorta of a rabbit (2-3 mm width, about 3 cm length) was allowed to equilibrate by hanging under 2 g force in a Krebs-Henseleit solution. The solution was saturated with a mixture gas of 97% O2 --3% CO2 which was warmed to 37° C. Inhibitory actions of compounds (10^-5 M) of this invention against contraction of the aorta strip caused by KCl (60 mM), norepinephrine (NE) (10^-6 M) or serotonin (5--HT) (10^-6 M), by treating the strip with a compound of this invention 15 minutes before the test, are shown in Table 1 as inhibitory percent.

[2] = test system: contraction depending on intracellular Ca^++; assay: Intracellular Ca++ antagonism: inhibition of phenylephrine contraction of aorta strip in Ca++-free EGTA solution; type: cell-based, rabbit; conditions: Oryctolagus cuniculus; compound 10^-6 M; phenylephrine 10^-6 M; Ca++ 0 mM, EGTA 5 mM; read-out: Inhibitory percent (contraction depending on intracellular Ca++)
Method: A spiral strip of aorta of a rabbit (2-3 mm width, about 3 cm length) was allowed to equilibrate by hanging under 2 g force in a Krebs-Henseleit solution. The solution was saturated with a mixture gas 97% O2 --3% CO2, which was warmed to 37° C. The strip was moved into another Krebs-Henseleit solution containing Ca^++ OmM and EGTA 5 mM. Five minutes later, phenylephrine (10^-6 M) was added on the solution. The resulting contraction of the strip was made as the index of the contraction depending on intracellular Ca^++.

[3] = test system: contraction of the aorta strip caused by KCl; assay: Vasodilating action: inhibition of contraction of rabbit aorta strip caused by KCl; type: cell-based; conditions: Oryctolagus cuniculus, compound 10^-5 M, KCl 60 mM, 15 min pretreatment, read-out: Inhibitory percent against contraction, KCl
Method: as §1

[4] = test system: spontaneously hypertensive rats; assay: Antihypertensive action in spontaneously hypertensive rats (tail-cuff); type: in vivo; conditions: 1 h after administration
Method: Male 12 to 13 weeks old spontaneously hypertensive rats with about 200 mm Hg of blood pressure were used in groups of 3 individuals. Mean arterial blood pressures of these animals were measured by the tail-cuff method, then the animals were orally given 3-60 mg/kg of each test compound of this invention as 2 ml of its suspension in gum arabic. Blood pressure measurements were made again one hour after administration of each test compound.

[5] = test system: contraction of the aorta strip caused by serotonin (5--HT); assay: Vasodilating action: inhibition of contraction of rabbit aorta strip caused by serotonin (5-HT); type: cell-based; conditions: Oryctolagus cuniculus, compound 10^-5 M, 5-HT 10^-6 M, 15 min pretreatment, read-out: Inhibitory percent against contraction, 5-HT
Method: as §1

intracellular Ca^++ = conditions: (2) Ca++ from intracellular store site; (3) Ca++ through receptor-dependent channel; cited from earlier work
[6] = test system: ischemic acute renal failure in rats; assay: Effect on the ischemic acute renal failure in rats; type: in vivo, Sprague-Dawley rats; conditions: for Plasma urea nitrogen (BUN): p.o., 24 h after reperfusion; for Effect on the increase in BUN (in words): Ex. 48 at 10 mg/kg, Ex. 46 at 1 and 3 mg/kg
Method: The left renal artery of male Sprague-Dawley rats, 6 week old, was clamped for 1 hour under anesthesia with sodium pentobarbital (50 mg/kg, i.p.). The compounds or water was orally given 1 hour before the occlusion. The compounds were again given 20 hour after the reperfusion of the blood. Twenty four hour after the reperfusion, the blood was obtained from the abdominal aorta under anesthesia for measurement of plasma urea nitrogen (BUN).

[7] = test system: ischemic seizure induced by bilateral carotid artery occlusion; assay: Effect on the ischemic seizure induced by bilateral carotid artery occlusion in spontaneously hypertensive rats; type: in vivo; conditions: p.o.; for Time toward ischemic seizure: 1 h before occlusion; for Effect on time of the beginning of the ischemic seizure (in words): Ex. 48 at 1, 3 and 10 mg/kg, Ex. 46 at 0.3, 1 and 3 mg/kg
Method: Male spontaneously hypertensive rats, 20 to 22 week old, were orally given the compounds or tap water at a volume of 5 ml/kg. After 1 hour, the carotid artery was bilaterally occluded by use of silk thread under anesthesia with sodium pentobarbital (50 mg/kg, i.p.). The length of time until the ischemic seizure such as convulsion and jumping was observed was measured, immediately after the occlusion of carotid artery.

[8] = test system: ischemia-reperfusion-induced ventricular arrythmia in rats; assay: Effect on the ischemia-reperfusion-induced ventricular arrhythmia in rats; type: in vivo, Sprague-Dawley rats; conditions: p.o.; for Incidence of cardiac arrest (CA), rats affected/rats used / Incidence of ventricular fibrillation (VF), rats affected/rats used / Incidence of ventricular tachycardia (VT), rats affected/rats used: 10 min after reperfusion; for Effect on incidences of VT, VF and CA (in words): Ex. 48 at 1, 3 and 10 mg/kg, Ex. 46 at 0.3, 1, 3 and 10 mg/kg
Method: Male Sprague-Dawley rats, 9 to 10 week old, were orally given the compounds or tap water at a volume of 5 ml/kg. After 1 hour, rats were anesthetized with sodium pentobarbital (50 mg/kg, i.p.), and left anterior descending coronary artery was occluded for 5 min. with a silk thread under ventilation. The incidences of ventricular tachycardia (VT), ventricular fibrilation (VF) and cardiac arrest (CA) occurred for 10 min. after reperfusion of the blood were calculated.

[9] = 3 mg/kg, control 20.3 ± 0.6 (Ex. 48), 25.1 ± 0.8 (Ex. 46)
[10] = 1 mg/kg, control 139 ± 9 (Ex. 48), 150 ± 6 (Ex. 46)
[11] = 3 mg/kg, control 152 ± 14 (Ex. 48), 150 ± 6 (Ex. 46)

Cc1cc(C)c2c(c1)SC(CCCN1CCN(c3ccc(F)cc3)CC1)C(=O)N2 (stereo not drawn) [Example 11]
inhibition at 10 µM [1]: 95% | inhibition at 1 µM [2]: 97% | inhibition at 10 µM [3]: 70% | Antihypertensive effect (difference of blood pressure before and after medication) ([4]; 30 mg/Kg oral): 49 ΔmmHg | inhibition at 10 µM [5]: 67%

Cc1cc2c(cc1C)SC(CCCN1CCN(c3ccc(F)cc3)CC1)C(=O)N2 (stereo not drawn) [Example 1, 2-[3-[4-(4-fluorophenyl)-1-piperazinyl]propyl]-6,7-dimethyl-2H-1,4-benzothiazin-3(4H)-one]
inhibition at 10 µM ([1]; 0.25 h): 100% | inhibition at 1 µM [2]: 66% | inhibition at 10 µM [3]: 50% | Antihypertensive effect (difference of blood pressure before and after medication) ([4]; 30 mg/Kg oral): 35 ΔmmHg

COC(=O)C1=C(C)NC(C)=C(C(=O)OC)C1c1ccccc1[N+](=O)[O-] [nifedipine]
Action on intracellular Ca++ (in words) (intracellular Ca^++): hardly acts on (2) and (3)

Cc1cccc2c1NC(=O)C(CCCN1CCN(c3cccc(Cl)c3)CC1)S2 (stereo not drawn) [Example 14]
inhibition at 10 µM [1]: 100% | inhibition at 1 µM [2]: 100% | inhibition at 10 µM [3]: 50% | Antihypertensive effect (difference of blood pressure before and after medication) ([4]; 30 mg/Kg oral): 26 ΔmmHg

O=C1Nc2cc3c(cc2SC1CCCN1CCN(c2ccc(F)cc2)CC1)CCC3 (stereo not drawn) [Example 46, 6,7-cyclopenteno-2-[3-[4-(4-fluorophenyl)-1-piperazinyl]propyl]-2H-1,4-benzothiazin-3(4H)-one.hydrochloride]
Plasma urea nitrogen (BUN) ([6]; 1 mg/kg, control 20.4 ± 0.4): 18.0 ± 0.7 mg/dL | Plasma urea nitrogen (BUN) [6, 9]: 19.6 ± 0.8 mg/dL | Effect on the increase in BUN (in words) [6]: inhibited the increase in BUN | Time toward ischemic seizure ([7]; 0.1 mg/kg, control 153 ± 8): 167 ± 13 min | Time toward ischemic seizure ([7]; 0.3 mg/kg, control 143 ± 7): 190 ± 11 min | Time toward ischemic seizure [7, 10]: 217 ± 11 min | Time toward ischemic seizure [7, 11]: 279 ± 18 min | Effect on time of the beginning of the ischemic seizure (in words) [7]: prolonged the time of the beginning of the ischematic seizure in a dose-dependent manner | Antihypertensive effect (difference of blood pressure before and after medication) ([4]; 3 mg/Kg oral): 33 ΔmmHg | Incidence of cardiac arrest (CA), rats affected/rats used ([8]; 0.3 mg/kg): 9/19 | Incidence of ventricular fibrillation (VF), rats affected/rats used ([8]; 0.3 mg/kg): 9/19 | Incidence of ventricular tachycardia (VT), rats affected/rats used ([8]; 0.3 mg/kg): 12/19 | Incidence of cardiac arrest (CA), rats affected/rats used ([8]; 1 mg/kg): 0/12 | Incidence of ventricular fibrillation (VF), rats affected/rats used ([8]; 1 mg/kg): 5/12 | Incidence of ventricular tachycardia (VT), rats affected/rats used ([8]; 1 mg/kg): 7/12 | Incidence of cardiac arrest (CA), rats affected/rats used ([8]; 3 mg/kg): 0/12 | Incidence of ventricular fibrillation (VF), rats affected/rats used ([8]; 3 mg/kg): 2/12 | Incidence of ventricular tachycardia (VT), rats affected/rats used ([8]; 3 mg/kg): 5/12 | Incidence of cardiac arrest (CA), rats affected/rats used ([8]; 10 mg/kg): 0/4 | Incidence of ventricular fibrillation (VF), rats affected/rats used ([8]; 10 mg/kg): 1/4 | Incidence of ventricular tachycardia (VT), rats affected/rats used ([8]; 10 mg/kg): 1/4 | Effect on incidences of VT, VF and CA (in words) [8]: inhibited the incidences of VT, VF and CA in a dose-dependent manner

Cc1cccc2c1NC(=O)C(CCCN1CCN(c3ccc(F)cc3)CC1)S2 (stereo not drawn) [Example 48, 2-[3-[4-(4-fluorophenyl)-1-piperazinyl]propyl]-5-methyl-2H-1,4-benzothiazin-3(4H)-one]
Plasma urea nitrogen (BUN) [6, 9]: 18.9 ± 0.6 mg/dL | Plasma urea nitrogen (BUN) ([6]; 10 mg/kg, control 22.8 ± 1.0): 16.9 ± 0.7 mg/dL | Effect on the increase in BUN (in words) [6]: inhibited the increase in BUN | Time toward ischemic seizure [7, 10]: 167 ± 8 min | Time toward ischemic seizure [7, 11]: 214 ± 22 min | Time toward ischemic seizure ([7]; 10 mg/kg, control 132 ± 14): 275 ± 22 min | Effect on time of the beginning of the ischemic seizure (in words) [7]: prolonged the time of the beginning of the ischematic seizure in a dose-dependent manner | Incidence of cardiac arrest (CA), rats affected/rats used ([8]; 1 mg/kg): 3/10 | Incidence of ventricular fibrillation (VF), rats affected/rats used ([8]; 1 mg/kg): 5/10 | Incidence of ventricular tachycardia (VT), rats affected/rats used ([8]; 1 mg/kg): 7/10 | Incidence of cardiac arrest (CA), rats affected/rats used ([8]; 3 mg/kg): 1/9 | Incidence of ventricular fibrillation (VF), rats affected/rats used ([8]; 3 mg/kg): 3/9 | Incidence of ventricular tachycardia (VT), rats affected/rats used ([8]; 3 mg/kg): 4/9 | Incidence of cardiac arrest (CA), rats affected/rats used ([8]; 10 mg/kg): 0/6 | Incidence of ventricular fibrillation (VF), rats affected/rats used ([8]; 10 mg/kg): 1/6 | Incidence of ventricular tachycardia (VT), rats affected/rats used ([8]; 10 mg/kg): 1/6 | Effect on incidences of VT, VF and CA (in words) [8]: inhibited the incidences of VT, VF and CA in a dose-dependent manner

Cc1cccc2c1NC(=O)C(CCCN1CCN(c3ccc(Cl)cc3)CC1)S2 (stereo not drawn) [Example 15]
inhibition at 10 µM [1]: 100% | inhibition at 1 µM [2]: 30% | inhibition at 10 µM [3]: 40% | inhibition at 10 µM [5]: 20%

Cc1cccc2c1NC(=O)C(CCCN1CCN(c3ccc(F)cc3)CC1)S2 (stereo not drawn) [Example 12, 2-[3-[4-(4-fluorophenyl)-1-piperazinyl]propyl]-5-methyl-2H-1,4-benzothiazin-3(4H)-one]
inhibition at 10 µM ([1]; 0.25 h): 100% | inhibition at 1 µM [2]: 100% | inhibition at 10 µM [3]: 41% | Antihypertensive effect (difference of blood pressure before and after medication) ([4]; 60 mg/Kg oral): 49 ΔmmHg | inhibition at 10 µM [5]: 96%

CN1C(=O)C(CCN2CCN(c3ccc(F)cc3)CC2)Sc2ccccc21 (stereo not drawn) [Example 30, 2-[2-[4(4-fluorophenyl)-1-piperazinyl]ethyl]-4-methyl-2H-1,4-benzothiazin-3(4H)-one]
inhibition at 10 µM ([1]; 0.25 h): 90% | inhibition at 10 µM [3]: 42% | Antihypertensive effect (difference of blood pressure before and after medication) ([4]; 30 mg/Kg oral): 40 ΔmmHg | inhibition at 10 µM [5]: 100%

COc1ccccc1N1CCN(CCCC2Sc3cc(C)cc(C)c3NC2=O)CC1 (stereo not drawn) [Example 22]
inhibition at 10 µM [1]: 100% | inhibition at 1 µM [2]: 100% | inhibition at 10 µM [3]: 62% | Antihypertensive effect (difference of blood pressure before and after medication) ([4]; 30 mg/Kg oral): 39 ΔmmHg | inhibition at 10 µM [5]: 15%

COc1ccc2c(c1)SC(CCCN1CCN(c3ccccc3OC)CC1)C(=O)N2 (stereo not drawn) [Example 6]
inhibition at 10 µM [1]: 100% | inhibition at 10 µM [3]: 26% | Antihypertensive effect (difference of blood pressure before and after medication) ([4]; 10 mg/Kg oral): 64 ΔmmHg | inhibition at 10 µM [5]: 91%
